{"source": "paper PMC12529164", "about": "“Design, Synthesis, Structure–Activity Relationships, and Preliminary Anticancer Properties of Menthol-Modified Coumarin Esters and 3,4-Dihydrocoumarin Derivatives” (ACS Omega, 2025)", "key": {"[1]": {"tested_on": "HaCaT", "assay": "MTT cytotoxicity assay, normal cells", "type": "cell-based", "conditions": "HaCaT, 72 h, human immortal keratinocytes (normal cells)", "procedure": "The human primary (SW480) and metastatic (SW620) colon cancer, metastatic prostate cancer (PC3), breast adenocarcinoma (MDA-MB-231) and human immortal keratinocyte (HaCaT) cell lines were recruited from the American Type Culture Collection (ATCC). The cells were cultured in the recommended medium according to protocols (RPMI 1640 for PC3, MEM for SW480 and SW620, as well as DMEM for MDA-MB-231 and HaCaT cells) with addition of 10% FBS, penicillin (100 U/mL), and streptomycin (100 μg/mL) and cultured in 37 °C/5% CO2 in a humidified incubator. Then, the cells were passaged at a confluence of 80–90% by a treatment with 0.25% trypsin (Gibco Life Technologies) and used for studies.\nThey were added to 96-well plates with seeded normal and cancer cells (1 × 10^4 cells per well) and incubated for 72 h. MTT analysis was performed according to a previous study."}, "[2]": {"tested_on": "HaCaT", "assay": "Trypan blue assay", "type": "cell-based, human", "conditions": "compound at IC50, 72 h", "procedure": "(§1) The total cell count was assessed by trypan blue exclusion dye assay using automated cell counter (Countess Invitrogen). Untreated cells were used as the control. Each experiment was repeated 5 times."}, "[3]": {"assay": "Trypan blue assay", "type": "cell-based, human", "conditions": "human, HaCaT cells, compound at IC50, 72 h, mean", "procedure": "as §1"}, "[4]": {"tested_on": "SW480", "assay": "Trypan blue assay", "type": "cell-based, human", "conditions": "SW480, compound at IC50, 72 h", "procedure": "as §1"}, "[5]": {"tested_on": "PC3", "assay": "Trypan blue assay", "type": "cell-based, human", "conditions": "PC3, compound at IC50, 72 h", "procedure": "as §1"}, "[6]": {"tested_on": "SW620", "assay": "Trypan blue assay", "type": "cell-based, human", "conditions": "SW620, compound at IC50, 72 h", "procedure": "as §1"}, "[7]": {"tested_on": "IL-6 in SW480 cells", "assay": "Interleukin-6 ELISA", "type": "cell-based, human", "conditions": "SW480, compound at IC50, 72 h", "procedure": "(§2) The concentration of Interleukin-6 (IL-6) was measured in cell culture supernatant using Interleukin IL-6 High Sensitivity ELISA kit (Diaclon SAS, Besancon Cedex, France). Cells (1 × 10^5 cells/well) were seeded in 12-well plates with medium for 24 h. […] After this incubation, the supernatants were collected and 100 μL of supernatant samples, control solutions and blank were added to precoated ELISA plate with the preceding plotting of the standard curve. Then 50 μL of diluted biotinylated antihuman interleukin-6 antibody was added and incubated at room temperature for 3 h. Afterward, the plate was washed three times and 100 μL streptavidin-HRP solution was added to each well. After 30 min incubation, the plate was washed again three times and 100 μL of tetramethylbenzidine (TMB) solution was added to each well. The plate was incubated for 15 min in the dark. The reaction was stopped by adding 100 μL of H2SO4 solution. The absorbance was estimated using a spectrophotometer at 450 nm (Microplate Spectrophotometer Thermo Scientific Multiskan GO)."}, "[8]": {"tested_on": "IL-6 in PC3 cells", "assay": "Interleukin-6 ELISA", "type": "cell-based, human", "conditions": "PC3, compound at IC50, 72 h", "procedure": "as §2"}, "[9]": {"tested_on": "IL-6 in SW620 cells", "assay": "Interleukin-6 ELISA", "type": "cell-based, human", "conditions": "SW620, compound at IC50, 72 h", "procedure": "as §2"}, "[10]": {"tested_on": "Danio rerio larvae", "assay": "In vivo toxicity, maximum tolerated concentration", "conditions": "zebrafish larvae, immersion from 96 hpf for 18 h (120 hpf), 5-150 μM tested", "procedure": "Zebrafish (Danio rerio, strain AB) was maintained at the Experimental Medicine Center, Medical University of Lublin, Poland. Embryos and larvae up to 120 h postfertilization (hpf) were kept under generally accepted environmental conditions, i.e., in incubators at 28.5 °C, with 14/10 h light/dark cycles. The embryos of the Zebrafish were harvested after the natural reproduction process.\nThree compounds showing low IC50 values determined on cancer lines in in vitro tests (2b, 4a) and compound 1a characterized by low cytotoxicity were used for in vivo tests. We also conducted research for coumarin. These compounds were dissolved in dimethyl sulfoxide (DMSO) (Sigma-Aldrich, St. Louis, MO, USA) and diluted in the zebrafish medium (pH 7.1–7.3; 5.0 mM NaCl, 0.17 mM KCl, 0.33 mM CaCl2, 0.33 mM MgSO4) to achieve a final DMSO concentration of 1% w/v. Twenty-four hpf zebrafish embryos were investigated under a light microscope, and […] fertilized embryos (n = 60) were selected and transferred into 48-well plates (5 embryos per well). Larvae were incubated in 1 mL of the zebrafish medium for up to 3 days after fertilization.\nOn the fourth day postfertilization (96 hpf), the larvae (10 individuals per group) were incubated in solutions of coumarin or its three derivatives (1a, 2b, 4a) at selected concentrations (5, 10, 25, 50, 75, 100, 150 μM), along with control solutions: negative control (zebrafish medium) and solvent control (1% DMSO in zebrafish medium). The maximum tolerated concentration (MTC) was calculated to assess the toxicity of the compounds and extracts. […] Larvae were individually inspected under a microscope for signs of acute locomotor dysfunction, including a weak reaction to light tail stimulation with a fine needle, disrupted posture, body deformities, protruding eyes, slowed or absent heartbeat, and mortality."}, "[11]": {"tested_on": "HaCaT", "assay": "Annexin V-FITC/PI flow cytometry", "type": "cell-based, human", "conditions": "compound at IC50, 72 h, mean", "procedure": "(§3) The apoptotic and necrotic cells treated with derivatives 2b, 4a, 4b were detected using FITC Annexin V Apoptosis Detection Kit I (BD Biosciences Pharmingen). Briefly, cells (2 × 10^5 cells/well) were seeded in 6-well plates in supplemented medium. […] Then cells were harvested, washed, and labeled with Annexin V-FITC and propidium iodide (PI) according to the manufacturer’s protocol. The stained cells were analyzed by flow cytometry. The cells were identified as early apoptotic (Annexin V+/PI−) or late apoptotic/necrotic (Annexin V+/PI+)."}, "[12]": {"tested_on": "SW480", "assay": "Annexin V-FITC/PI flow cytometry", "type": "cell-based, human", "conditions": "SW480, compound at IC50, 72 h, mean", "procedure": "as §3"}, "[13]": {"tested_on": "PC3", "assay": "Annexin V-FITC/PI flow cytometry", "type": "cell-based, human", "conditions": "PC3, compound at IC50, 72 h, mean", "procedure": "as §3"}, "[14]": {"tested_on": "SW620", "assay": "Annexin V-FITC/PI flow cytometry", "type": "cell-based, human", "conditions": "SW620, compound at IC50, 72 h", "procedure": "as §3"}}, "note": "Values joined by “and” are separate entries in the source; they are usually repeats but may differ in a detail not shown here. Identical values can stand only once.", "data": [{"smiles": "CC(C)[C@@H]1CC[C@@H](C)C[C@H]1OC(=O)C1C(=O)Oc2ccccc2C1P(=O)(c1ccccc1)c1ccccc1", "note": "(mixture of isomers) [Compound 4a, (1R,2S,5R)-2-Isopropyl-5-methylcyclohexyl-4-(diphenylphosphoryl)-2-oxochromane-3-carboxylate]", "values": [{"measurement": "IC50", "setting": "[1]", "result": "15.1 ± 2.76", "unit": "µM"}, {"measurement": "cell number", "setting": "[2]; mean", "result": "4.26 x106"}, {"measurement": "reduction of number of cells", "setting": "[2]; vs control", "result": 31.9, "unit": "%"}, {"measurement": "viability at 72 h", "setting": "[3]", "result": 96, "unit": "%"}, {"measurement": "cell number", "setting": "[4]; mean", "result": "0.72 x106"}, {"measurement": "viability (%)", "setting": "[4]; mean", "result": 93.66, "unit": "%"}, {"measurement": "reduction of number of live cells", "setting": "[4]; vs control", "result": 79.9, "unit": "%"}, {"measurement": "cell number", "setting": "[5]; mean", "result": "2.5 x106"}, {"measurement": "viability (%)", "setting": "[5]; mean", "result": 94.33, "unit": "%"}, {"measurement": "reduction of number of live cells", "setting": "[5]; vs control", "result": 62.1, "unit": "%"}, {"measurement": "cell number", "setting": "[6]; mean", "result": "1.86 x106"}, {"measurement": "viability (%)", "setting": "[6]; mean", "result": 98, "unit": "%"}, {"measurement": "reduction of number of live cells", "setting": "[6]; vs control", "result": 47.6, "unit": "%"}, {"measurement": "IL-6 concentration", "setting": "[7]; ELISA", "result": "0.9 ± 0.33", "unit": "pg/mL"}, {"measurement": "reduction of IL-6 level", "setting": "[7]; vs control", "result": 77.6, "unit": "%"}, {"measurement": "IL-6 concentration", "setting": "[8]; ELISA", "result": "0.6 ± 0.09", "unit": "pg/mL"}, {"measurement": "reduction of IL-6 level", "setting": "[8]; vs control", "result": 87.2, "unit": "%"}, {"measurement": "IL-6 concentration", "setting": "[9]; ELISA", "result": "0.9 ± 0.27", "unit": "pg/mL"}, {"measurement": "reduction of IL-6 level", "setting": "[9]; vs control", "result": 69.1, "unit": "%"}, {"measurement": "maximum tolerated concentration (MTC)", "setting": "[10]", "result": 75, "unit": "µM"}, {"measurement": "Early apoptosis [%]", "setting": "[11]", "result": 8.90, "unit": "%"}, {"measurement": "Late apoptosis [%]", "setting": "[11]", "result": 3.40, "unit": "%"}, {"measurement": "Necrosis [%]", "setting": "[11]", "result": 0.08, "unit": "%"}, {"measurement": "Early apoptosis [%]", "setting": "[12]", "result": 1.95, "unit": "%"}, {"measurement": "Late apoptosis [%]", "setting": "[12]", "result": 48.95, "unit": "%"}, {"measurement": "Necrosis [%]", "setting": "[12]", "result": 1.80, "unit": "%"}, {"measurement": "Early apoptosis [%]", "setting": "[13]", "result": 48.3, "unit": "%"}, {"measurement": "Late apoptosis [%]", "setting": "[13]", "result": "44.75% and 44.8%"}, {"measurement": "Necrosis [%]", "setting": "[13]", "result": 0.65, "unit": "%"}, {"measurement": "Early apoptosis [%]", "setting": "[14]; mean", "result": 11.75, "unit": "%"}, {"measurement": "Late apoptosis [%]", "setting": "[14]; mean", "result": 8.80, "unit": "%"}, {"measurement": "Necrosis [%]", "setting": "[14]; mean", "result": 1.45, "unit": "%"}, {"measurement": "both late apoptosis and necrosis", "setting": "[14]; sum", "result": 10.25, "unit": "%"}]}]}
